Paper PMC6736568, “Discovery of Novel Anti-cryptosporidial Activities From Natural Products by in vitro High-Throughput Phenotypic Screening” (Frontiers in Microbiology, 2019)
Where a name gives a salt, the structure may show the parent alone. Read-outs that look alike come from different tables or passages of the source.

How the values were obtained:
Cryptosporidium parvum = assay: qRT-PCR assay of the growth of C. parvum in vitro in HCT-8 host cells (primary and secondary screening, EC50); assay type: cell-based; conditions: for % Inhibition (3.3 uM): secondary screening at 3.3 uM
[1] = primary screening at 10 uM, from Hs18S ΔCT
[2] = primary screening at 10 uM, treated vs control

Compound	Inhibition (%) (Cryptosporidium parvum; primary screening at 10 uM)	Cytotoxicity (%) (HCT-8 host cells (Hs18S); [1])	Hs18S ΔCT (HCT-8 host cells (Hs18S); [2])	Hs18S ΔCT (HCT-8 host cells (Hs18S))	Cytotoxicity (%) (HCT-8 host cells (Hs18S); 10 µM)	% Inhibition (3.3 uM) (Cryptosporidium parvum) [%]	Inhibition (%) (Cryptosporidium parvum; 10 µM)
CC(=O)O.Cc1cc2c(C(C)C)c(O)c(O)c(C=O)c2c(O)c1-c1c(C)cc2c(C(C)C)c(O)c(O)c(C=O)c2c1O [GOSSYPOL-ACETIC ACID COMPLEX]	-21.55	-7.1	-0.10				
O=C(O[C@@H]1Cc2c(O)cc(O)cc2O[C@@H]1c1cc(O)c(O)c(O)c1)c1cc(O)c(O)c(O)c1 [EPIGALLOCATECHIN-3-MONOGALLATE]	10.02	-14.2	-0.19				
CCC(C)C(NC)C(=O)O (stereo not drawn) [N-METHYLISOLEUCINE]	-3.51			-0.07	-5.2		
COc1cc2oc3cc(OC)c(OC)c(CC=C(C)C)c3c(=O)c2c(O)c1CC=C(C)C [1-HYDROXY-3,6,7-TRIMETHOXY-2,8-DIPRENYLXANTHONE]	-18.05	7.7	0.12				
COc1ccc(-c2cc(=O)c3c(O)cc(OC)c(OC)c3o2)c(OC)c1 [5-HYDROXY-2',4',7,8-TETRAMETHOXYFLAVONE]	89.23	13.2	0.20			-83	
C[C@@H]1CC[C@@]2(OC1)O[C@H]1C[C@H]3[C@@H]4CC[C@@H]5C[C@@H](O)CC[C@]5(C)[C@H]4CC[C@]3(C)[C@H]1[C@@H]2C [SMILAGENIN]	13.52	33.2	0.58				
COc1ccc(-c2oc3cc(OC)c(OC)c(OC)c3c(=O)c2OC)cc1 [3,4',5,6,7-PENTAMETHOXYFLAVONE]	-9.57	15.6	0.24				
CC(C)CCC[C@@H](C)[C@H]1CC[C@H]2[C@@H]3CC[C@H]4C[C@@H](O)CC[C@]4(C)[C@H]3CC[C@]12C [5alpha-CHOLESTANOL]	-23.23	-2.4	-0.03				
CN(C)CC(=O)OC[C@@H](O)[C@@H](O)[C@H](O)[C@@H](O)C(=O)[O-].[Na+] [PANGAMIC ACID SODIUM]	-4.04				-61.0%		
CC1=CC(=O)CC(C)(C)C1(O)/C=C/C(C)=C\C(=O)O (racemic) [ABSCISIC ACID (cis,trans; +/-)]	-7.09	36.3	0.65				
O.OC[C@H]1O[C@@H](O[C@H]2[C@H](O)[C@@H](O)[C@@H](O)O[C@@H]2CO)[C@H](O)[C@@H](O)[C@H]1O [LACTOSE MONOHYDRATE]	31.71		0.02				
COC[C@]12CN(C=O)[C@@H]3[C@@H]4[C@H](OC)[C@H]1[C@@]3([C@@H](OC)C[C@H]2O)[C@@H]1C[C@@]2(O)[C@H](OC(=O)c3ccccc3)[C@@H]1[C@]4(OC(C)=O)[C@@H](O)[C@@H]2OC [OXONITINE]	0.75	3.3	0.05				
Br.CN1[C@H]2C[C@H](OC(=O)[C@H](CO)c3ccccc3)C[C@@H]1[C@@H](O)C2 [ANISODAMINE HYDROBROMIDE]	5.51	-32.6	-0.41				
CC(C)CCC[C@@H](C)[C@H]1CC[C@H]2[C@@H]3CC[C@H]4CCCC[C@]4(C)[C@H]3CC[C@]12C [CHOLESTANE]	13.94	12.2	0.19				
COc1ccc(/C=C/C(=O)c2cc(O)ccc2O)cc1 [2',5'-DIHYDROXY-4-METHOXYCHALCONE]				-0.46	-37.7		-23.93
POMIFERIN TRIMETHYL ETHER	-34.33	11.4	0.17				
CC(=O)[C@H]1CC[C@H]2[C@@H]3CCC4C[C@H](O)CC[C@]4(C)[C@H]3C[C@H](O)[C@]12C (stereo partly drawn) [DIHYDROXY (3alpha,12alpha)PREGNAN-20-ONE]	-32.59	-29.0	-0.37				
COC(=O)C1(C)CCCC2(C)c3ccc(O)c(C(C)C)c3CCC12 (stereo not drawn) [TOTAROL-19-CARBOXYLIC ACID, METHYL ESTER]	-12.62	22.4	0.37				
CC(C)CCC[C@@H](C)[C@H]1CC[C@H]2[C@@H]3CC=C4C[C@@H](OC(=O)c5ccccc5)CC[C@]4(C)[C@H]3CC[C@]12C [CHOLESTERYL BENZOATE]	-14.05	5.3	0.08				
O.O=C(O)[C@@H]1[C@H]2C[C@H]3c4[nH]c5ccccc5c4CCN3C[C@@H]2CC[C@@H]1O [YOHIMBIC ACID HYDRATE]	-21.23	-20.7	-0.27				
CN[C@@H]1[C@@H](O[C@H]2O[C@H](CO)[C@@H](N)[C@H](O)[C@H]2O)O[C@H]2C[C@@H](N)[C@@H](O[C@H]3[C@H](O)[C@@H](O)[C@H](N)C[C@@H]3N)O[C@@H]2[C@@H]1O.O=S(=O)(O)O [APRAMYCIN SULFATE]	42.68	-3.1	-0.04				
O=C[C@H](O)[C@H](O)CO [ERYTHROSE]	57.20	14.6	0.23				

Compound	Inhibition (%) (Cryptosporidium parvum; primary screening at 10 uM)	Cytotoxicity (%) (HCT-8 host cells (Hs18S); [1])	Hs18S ΔCT (HCT-8 host cells (Hs18S); [2])	Hs18S ΔCT (HCT-8 host cells (Hs18S))	Cytotoxicity (%) (HCT-8 host cells (Hs18S); 10 µM)	% Inhibition (3.3 uM) (Cryptosporidium parvum) [%]	Inhibition (%) (Cryptosporidium parvum; 10 µM)
OC[C@H]1O[C@H](OCC2O[C@@H](O)[C@H](O)[C@@H](O)[C@@H]2O)[C@H](O)[C@@H](O)[C@H]1O (stereo partly drawn) [MELIBIOSE]	-16.19	-4.0	-0.06				
COc1ccc(-c2oc3cc(OC)c(OC)c(OC)c3c(=O)c2OC)cc1OC [HEXAMETHYLQUERCETAGETIN]	95.76	50.3	1.01			-42	
DEGUELIN(-)	45.04	34.2	0.60				
COc1cc2cc3c4cc(OC)c(OC)cc4cc[n+]3c(C)c2cc1OC.[Cl-] [CORALYNE CHLORIDE]	-5.22	-23.6	-0.31				
O=c1cc(-c2ccccc2O)oc2cc(O)ccc12 [7,2'-DIHYDROXYFLAVONE]	-16.96	12.6	0.19				
C=CCCCCCCCCCCCc1ccco1 [AVOCADENOFURAN]	-21.47	-32.5	-0.41				
Cl.NCCc1ccccc1 [PHENETHYLAMINE HYDROCHLORIDE]	39.04	87.4	2.99				
O=C(O)[C@H](O)[C@@H](O)[C@H](O[C@@H]1O[C@H](CO)[C@H](O)[C@H](O)[C@H]1O)[C@H](O)CO [LACTOBIONIC ACID]	-17.48	-27.5	-0.35				
C[C@]12CCC(=O)C=C1CC[C@@H]1[C@@H]2C(=O)C[C@@]2(C)[C@H]1CC[C@]2(O)C(=O)CO [CORTISONE]	-10.93		-0.17				
COc1ccc([C@@H]2CC(=O)c3c(O)cc(O[C@@H]4O[C@H](CO[C@@H]5O[C@@H](C)[C@H](O)[C@@H](O)[C@H]5O)[C@@H](O)[C@H](O)[C@H]4O)cc3O2)cc1O [HESPERIDIN]	66.25	21.5	0.35			36	
CN[C@@H]1[C@H](O)[C@H](NC)[C@H]2O[C@@]3(O)C(=O)C[C@@H](C)O[C@H]3O[C@@H]2[C@H]1O.Cl [SPECTINOMYCIN HYDROCHLORIDE]	-6.16	-42.8	-0.51				
C=C[C@@]1(C)CC(=O)[C@@]2(O)[C@](C)(O1)[C@@H](O)[C@@H](O)C1C(C)(C)CC[C@H](O)[C@@]12C (stereo partly drawn) [DESACETYLCOLFORSIN]	-6.53	14.3	0.22				
3-ACETYLGEDUNOL	-40.49	56.3	1.19				
O=C(O)c1cc(O)c(=O)c2c(O)c(O)cc([C@H]3Oc4cc(O)cc(O)c4C[C@H]3O)c2c1 [EPITHEAFLAVIC ACID]	-9.36				6.9%		
CC1(C)C(=O)[C@@H]2O[C@@H]2[C@@]2(C)C1C[C@@H](O)[C@]1(C)C2CC[C@@]2(C)[C@H](c3ccoc3)OC(=O)C3OC321 (stereo partly drawn) [1,2alpha-EPOXYDEACETOXYDIHYDROGEDUNIN]	56.48	-12.9	-0.18				
COc1cc(OC)c2c(=O)c(OC)c(-c3ccccc3)oc2c1 [GALANGIN TRIMETHYL ETHER]	-18.22	8.8	0.13				
COc1cc2oc3cc(OC)c(OC)c(CC=C(C)C)c3c(=O)c2c(OC)c1CC=C(C)C [MANGOSTIN TRIMETHYL ETHER]	-8.08			0.00	-0.1		
CYANOCOBALAMIN	16.98	-24.5	-0.32				
COC(=O)/C=C/c1cc(OC)c(OC)c(OC)c1 [METHYL TRIMETHOXYCINNAMATE]	-24.35	2.8	0.04				
COc1ccc2c(c1O)-c1c(OC)c(OC)cc3c1[C@H](C2)N(C)CC3 [S-ISOCORYDINE (+)]	-15.72	-47.4	-0.56				
CC[C@H]1OC(=O)C[C@@H](O)[C@H](C)[C@@H](O[C@@H]2O[C@H](C)[C@@H](O[C@H]3C[C@@](C)(O)[C@@H](O)[C@H](C)O3)[C@H](N(C)C)[C@H]2O)[C@@H](CC=O)C[C@@H](C)C(=O)/C=C/C(C)=C/[C@@H]1CO[C@@H]1O[C@H](C)[C@@H](O)[C@@H](OC)[C@H]1OC [TYLOSIN TARTRATE]	25.75	-14.2	-0.19				
COc1cc2c(cc1OC)Cc1cc(OC)c(OC)cc1Cc1cc(OC)c(OC)cc1C2 [CYCLOVERATRYLENE]	83.81	-2.2	-0.03			-85	
